Values of other authors as cited in patent publication US20260258132A1, “TREATMENT OF LUNG CANCER WITH ANTI-PD-1 AND CHEMOTHERAPY” (BeOne Medicines I GmbH, priority 2023, published 2026).

Tested on: ES-SCLC
Conditions: cited from earlier work; for RMST analysis: difference in OS in prior studies: versus placebo plus chemotherapy

Molecule	median OS in the previous study (first-line treatment for ES-SCLC) [months]	OS HR in the previous study (pembrolizumab arm versus placebo arm, 95% CI 0.64-0.98)	RMST analysis: difference in OS in prior studies [month]
pembrolizumab plus chemotherapy: pembrolizumab (humanized IgG4 anti-PD-1 antibody) plus chemotherapy, first-line ES-SCLC, previous study	10.8	0.80	1.2
adebrelimab plus chemotherapy: adebrelimab plus chemotherapy, prior study compared by RMST of OS (antibody, chains of the INN, looked up, V domains shown, plus chemotherapy, adebrelimab plus chemotherapy, prior study compared by RMST of OS) VH: QVQLVQSGAEVKKPGASVKVSCKASGYTFTSYWMHWVRQAPGQGLEWMGRIGPNSGFTSYNEKFKNRVTMTRDTSTSTVYMELSSLRSEDTAVYYCARGGSSYDYFDYWGQGTTVTVSS VL: DIVLTQSPASLAVSPGQRATITCRASESVSIHGTHLMHWYQQKPGQPPKLLIYAASNLESGVPARFSGSGSGTDFTLTINPVEAEDTANYYCQQSFEDPLTFGQGTKLEIK	–	–	2.3
